Experimental data reported in patent US20110224291A1, “SKIN EXTERNAL COMPOSITION FOR INHIBITING EPIDERMAL HYPERPROLIFERATION AND ALLEVIATING INFLAMMATORY SKIN DISEASES CONTAINING ORTHODIHYDROXYISOFLAVONE DERIVATIVES” (priority 2008, published 2011).

Experiments:
[1] = test system: Dickkopf homolog 3 (DKK3); experiment: DKK3 expression in keratinocytes by Q-RT-PCR; assay type: cell-based; settings: human neonatal keratinocyte cells, 10 μM, 24 hours, FIG. 2
Procedure: (§1) Human neonatal keratinocyte cells purchased from Welskin Co (Seoul, Korea) were subcultured in a 25 cm^2 T-flask and incubated in a CO2 incubator under conditions of 37° C. and 5% CO2. Generally, the experiment was carried out after the cells have been subcultured for 2-3 passages. According to the method of Lonza, Inc. (Walkersville, Md., USA), the medium used in the cell culture was prepared by adding a KGM-2 bullet kit (bovine pituitary extract (2 mg), human epidermal growth factor (0.5 ml), insulin (0.5 ml), hydrocortisone (0.5 mg), transferrin (0.5 mg), epinephrine (0.5 mg), and gentamicin sulfate+amphotericin-B (GA-1000, 0.5 ml)) to 500 ml of KBM-2 medium (Clonetics CC-3103). When a confluence of about 50% was shown 2 days after the subculture of the cells, the serum was starved. After 24 hours, the cells were treated with 10 μM of each of a negative control, an Angelica gigas Nakai extract (positive control), daidzein and Examples 1-6 for 24 hours. […]
(§2) Then, RNA of the cells was isolated using Trizol reagent (Invitrogen, Carlsbad, Calif., USA). The isolated RNA was purified with Qiagen RNeasy kit (Qiagen, Valencia, Calif.), and then the quality of the RNA was confirmed using the Agilent 2100 Bio-Analyzer (Agilent Technologies, Santa Clara, Calif., USA). cDNA was synthesized from the RNA using a superscript reverse transcriptase (RT) kit (Invitrogen, Carlsbad, Calif.) and was quantitatively analyzed through a real time-reverse transcription polymerase chain reaction (Q-RT-PCR). The changes in the expression patterns of genes in the keratinocyte cells were analyzed using the TaqMan®gene expression assay kit (Applied Biosystems, Foster City, Calif.), Dickkopf homolog 3 (DKK3)-HS00247426_m1, and Frizzled homolog 1 (FZD1)-HS00268943_s1 (TagMan primer catalog name), thus confirming the expression levels of DKK3 and FZD1.

[2] = test system: Frizzled homolog 1 (FZD1); experiment: FZD1 expression in keratinocytes by Q-RT-PCR; assay type: cell-based; settings: human neonatal keratinocyte cells, 10 μM, 24 hours, FIG. 3
Procedure: as §1, §2

TNF-alpha = experiment: Anti-inflammatory effect: TNF-alpha gene expression in LPS-treated HaCaT cells; assay type: cell-based, human; settings: 10 μM pretreatment 2 hours, 1 μg/ml LPS 8 hours, mRNA normalized to GAPDH, FIG. 4
Procedure: In this Example, human keratinocyte HaCaT cells obtained from the Korean Cell Line Bank (Seoul, Korea) were used. The HaCaT cells were seeded into a DMEM medium containing 10% (v/v) FBS, 100 U/ml penicillin and 100 μg/ml streptomycin and were incubated in an animal cell incubator under conditions of 37° C. and 5% CO2. The HaCaT cells prepared at 1.5×10^6 cells/well were adapted in FBS-free medium for 3 hours. The cells were pretreated with 10 μM of each of 4′,6,7-trihydroxyisoflavone, 3′,4′,7-trihydroxyisoflavone, daidzein and TGZ for 2 hours, 1 μg/ml of lipopolysaccharide (LPS) was added thereto, and then the cells were additionally cultured for 8 hours. Total RNA of the cells was extracted using TRIzol™ (GIBCO BRL, MD, USA) and stored at −80° C. 1 μg of the total RNA was added to 25 μl of a reverse transcription reaction buffer containing 50 mM Tris-HCl (pH 8.3), 75 mM KCl, 3 mM MgCl2, 0.1 M DTT, 10 mM dNTP and 40 U/μl RNase inhibitor. 0.5 μg/μl oligo(dT)16 primers and 200 U SuperScript per Script II reverse transcriptase (GiboBRL) were added thereto, and the total RNA was subjected to a reverse transcription reaction at 42° C. for 1 hour. Then, 2.5 μl of the reverse transcription reaction solution was added to […] of a PCR reaction buffer containing 0.04 U AmpliTaq DNA polymerase (Perkin Elmer, Shelton, Conn.), 50 mM Tris-HCl (pH 8.3), 0.25 mg/ml bovine serum albumin, 3 mM MgCl2, 0.25 mM dNTPs and a 1/50,000 dilution of SYBR green I (Molecular Probes, Eugene, Oreg.), and 10 μM primers were added thereto. Then, a PCR reaction was subjected to PCR amplification. The PCR reaction consisted of 30 cycles of denaturation at 94° C. for 30 sec, annealing at 53° C. for 30 sec and extension at 72° C. for 1 min. The relative mRNA levels were analyzed by measuring the change in fluorescence of SYBR green I using ICycler software. As an internal standard, GAPDH (glyceraldehyde 3-phosphate dehydrogenase) was used to normalize the quantitative expression level of the gene TNF-alpha.

[3] = test system: Human keratinocyte HaCaT cells; experiment: Keratinocyte division inhibition, BrdU colorimetric ELISA; assay type: cell-based; settings: HaCaT cells, 1, 10 and 50 μM, 48 hours, BrdU analysis, FIG. 1; for keratinocyte division-inhibiting effect: compared with daidzein
Procedure: Human keratinocyte HaCaT cells were added to 10% fetal bovine serum-containing DMEM medium [Dulbecco's modified Eagle's Medium; Gibco 1210-0038] and cultured in a 24-well plate at a confluence of 70%. The HaCaT cells were treated with 1, 10 and 50 μM of each of 4′,6,7-trihydroxyisoflavone and 3′,4′,7-trihydroxyisoflavone, and after 48 hours, subjected to BrdU analysis. At 12 hours before the BrdU analysis was carried out, BrdU labeling was carried out. The BrdU analysis was carried out using a BrdU colorimetric ELISA kit (Roche) according to the manufacturer's instruction. First, the culture broth was treated with BrdU solution for 12 hours, and then the medium was removed. The cells were fixed, and a peroxidase-conjugated BrdU antibody was added thereto, after which the cells were treated with a substrate solution to induce color development. The degree of color development was measured with an ELISA reader. As positive controls, calcium known to be used for the differentiation of keratinocytes, and troglitazone (TGZ) known to inhibit cell division and induce cell differentiation were used.

Row | SMILES | expression level of DKK3 [1] | expression level of FZD1 [2] | expression of the TNF-alpha gene (TNF-alpha) | concentration dependence of inhibition of keratinocyte division [3] | keratinocyte division-inhibiting effect [3]
1 | O=c1c(-c2ccc(O)cc2)coc2cc(O)ccc12 [daidzein, reference compound] | significantly lower than those in the groups treated with the ortho-dihydroxyisoflavone derivatives | significantly lower than those in the groups treated with the ortho-dihydroxyisoflavone derivatives | slightly inhibited | – | –
2 | O=c1c(-c2ccc(O)cc2)coc2cc(O)c(O)cc12 [4′,6,7-trihydroxyisoflavone] | effectively promoted the expression | effectively promoted the expression | strongly inhibited | concentration-dependent manner | significantly superior to that of daidzein
3 | O=c1c(-c2ccc(O)c(O)c2)coc2cc(O)ccc12 [3′,4′,7-trihydroxyisoflavone] | effectively promoted the expression | effectively promoted the expression | strongly inhibited | concentration-dependent manner | significantly superior to that of daidzein
